Publication PMC5681660, “Reduced hepatitis B and D viral entry using clinically applied drugs as novel inhibitors of the bile acid transporter NTCP” (Scientific Reports, 2017)
Structures can show the parent of a compound that is named as a salt.

Experiments:
human NTCP [1] = target: T1, human NTCP (Homo sapiens, UniProt Q14973); test: Screening fluorescent competitive Myrcludex B-FITC binding assay (96-well, 10 µM drug); settings: 10 µM drug
T1 sequence (Q14973 1-349): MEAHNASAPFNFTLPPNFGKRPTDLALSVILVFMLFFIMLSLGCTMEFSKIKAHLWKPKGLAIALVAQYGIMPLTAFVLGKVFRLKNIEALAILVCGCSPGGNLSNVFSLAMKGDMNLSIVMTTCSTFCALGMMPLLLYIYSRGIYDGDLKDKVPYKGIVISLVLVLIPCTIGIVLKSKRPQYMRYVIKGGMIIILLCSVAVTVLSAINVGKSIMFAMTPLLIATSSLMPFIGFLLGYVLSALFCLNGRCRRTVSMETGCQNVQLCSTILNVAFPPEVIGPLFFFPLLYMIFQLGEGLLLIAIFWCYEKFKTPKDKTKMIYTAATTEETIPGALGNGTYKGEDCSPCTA

human NTCP [2] = target: T1, human NTCP; test: Screening taurocholate uptake assay (96-well, [14C]taurocholate, 10 µM drug); settings: for B-score functional assay: 10 µM drug
[3] = Prestwick library screen, B-score of Myrcludex B-FITC binding
[4] = Prestwick library screen, B-score of taurocholate uptake
[5] = combined ranking from functional and binding assay B-scores
[6] = screen, Myrcludex B-FITC binding
[7] = combined ranking from functional and binding screening assays
[8] = Prestwick library screen, Myrcludex B-FITC binding
[9] = Prestwick library screen, taurocholate uptake
[10] = ranking score beside the functional and binding assay B-scores of the screen

SMILES | B-score binding assay (human NTCP [1]; [3]) | B-score functional assay (human NTCP [2]; [4]) | Ranking score (human NTCP [2]; [5]) | B-score binding assay (human NTCP [1]; [8]) | B-score functional assay (human NTCP [2]; [9]) | Ranking score (human NTCP [2]; [10]) | other results
COc1ccc2[nH]cc(CCNC(C)=O)c2c1 [Melatonin] | 0.248 | 0.509 | 864.497 | – | – | – | –
C=C1C[C@H]2[C@@H]3C=C(C)C4=CC(=O)CC[C@]4(C)[C@H]3CC[C@]2(C)[C@@]1(OC(C)=O)C(C)=O [Melengestrol acetate] | – | – | – | – | – | – | B-score binding assay (human NTCP [1]; [6]): 1.224; Ranking score (human NTCP [2]; [7]): 323.966; B-score functional assay (human NTCP [2]; screen, taurocholate uptake): -2.447
CC12CC3CC(C)(C1)CC(N)(C3)C2 [Memantine Hydrochloride] | – | – | – | -0.02 | 1.46 | 837.42 | –
Cc1ccccc1OCC(O)CO (stereo not drawn) [Mephenesin] | – | – | – | 1.192 | -0.317 | 689.632 | –
CNC(C)(C)Cc1ccccc1.CNC(C)(C)Cc1ccccc1.O=S(=O)(O)O [Mephentermine hemisulfate] | – | – | – | 0.758 | -0.093 | 728.877 | –
CCC1(c2ccccc2)NC(=O)N(C)C1=O (stereo not drawn) [Mephenytoin] | – | – | – | 0 | 0.862 | 812.389 | –
CCCNC(C)(C)COC(=O)c1ccccc1 [Meprylcaine hydrochloride] | – | – | – | – | – | – | B-score binding assay (human NTCP [1]; [6]): -1.608; Ranking score (human NTCP [2]; [7]): 382.481; B-score functional assay (human NTCP [2]; screen, taurocholate uptake): 0.763
S=c1[nH]cnc2nc[nH]c12 [Mercaptopurine] | – | – | – | – | – | – | B-score binding assay (human NTCP [1]; [6]): -0.534; Ranking score (human NTCP [2]; [7]): 451.727; B-score functional assay (human NTCP [2]; screen, taurocholate uptake): -0.084
C[C@@H](O)[C@H]1C(=O)N2C(C(=O)O)=C(S[C@@H]3CN[C@H](C(=O)N(C)C)C3)[C@H](C)[C@H]12 [Meropenem] | 0.55 | 0.4 | 900.139 | – | – | – | –
Nc1ccc(O)c(C(=O)O)c1 [Mesalamine] | – | – | – | 2.828 | -0.331 | 739.887 | –
CN1CCCCC1CCN1c2ccccc2Sc2ccc([S+](C)[O-])cc21 (stereo not drawn) [Mesoridazine besylate] | 0.002 | 2.438 | 892.285 | – | – | – | –
CN(C)C(=N)N=C(N)N [Metformin hydrochloride] | – | – | – | 1.144 | -0.092 | 761.884 | –
CC(=O)/N=c1/sc(S(N)(=O)=O)nn1C [Methazolamide] | -0.041 | 2.368 | 849.129 | – | – | – | –
C1N2CN3CN1CN(C2)C3 [Methenamine] | 0.067 | 1.472 | 906.386 | – | – | – | –
Cn1cc[nH]c1=S [Methimazole] | 1.226 | 0.936 | 1068.39 | – | – | – | –
CSc1ccc2c(c1)C(N1CCN(C)CC1)Cc1ccccc1S2.O=C(O)/C=C\C(=O)O (stereo not drawn) [Methiothepin maleate] | – | – | – | – | – | – | B-score binding assay (human NTCP [1]; [6]): -1.545; Ranking score (human NTCP [2]; [7]): 441.5; B-score functional assay (human NTCP [2]; screen, taurocholate uptake): 4.841
CN(Cc1cnc2nc(N)nc(N)c2n1)c1ccc(C(=O)N[C@@H](CCC(=O)O)C(=O)O)cc1 [Methotrexate] | – | – | – | -0.007 | 0.045 | 661.494 | –
COc1ccc2c(c1)N(C[C@H](C)CN(C)C)c1ccccc1S2.O=C(O)/C=C\C(=O)O [Methotrimeprazine maleat salt] | – | – | – | -0.27 | 1.773 | 734.211 | –
C[N+]1(C)[C@@H]2CC[C@H]1C[C@@H](OC(=O)C(CO)c1ccccc1)C2 (stereo partly drawn) [Methylatropine nitrate] | – | – | – | – | – | – | B-score binding assay (human NTCP [1]; [6]): -1.066; Ranking score (human NTCP [2]; [7]): 357.004; B-score functional assay (human NTCP [2]; screen, taurocholate uptake): -0.076
C[C@](N)(Cc1ccc(O)c(O)c1)C(=O)O [Methyldopa (L,-)] | – | – | – | -0.046 | 1.009 | 793.128 | –
CCOC(=O)[C@@](C)(N)Cc1ccc(O)c(O)c1 [Methyldopate hydrochloride] | 2.397 | 0.673 | 1088.5 | – | – | – | –
CC[C@@H](CO)NC(=O)[C@@H]1C=C2c3cccc4[nH]cc(c34)C[C@H]2N(C)C1 [Methylergometrine maleate] | 0.851 | 0.963 | 1029.08 | – | – | – | –
C[C@H]1NC(=O)NC1=O [Methylhydantoin-5-(D)] | – | – | – | – | – | – | B-score binding assay (human NTCP [1]; [6]): -1.862; Ranking score (human NTCP [2]; [7]): 290.241; B-score functional assay (human NTCP [2]; screen, taurocholate uptake): 0.047
